System: male Sprage Dawley rats
Experiment: L-NAME induced hypertension model, arterial blood pressure by tail-cuff method (Example 11)
Assay type: in vivo
Conditions: rat, L-NAME 40 mg/Kg in drinking water, oral gavage 100 mg/Kg (group 6, positive control)
Description: Thirty-six male Sprage Dawley rats (weight aprox. 200 at the beginning of the experiment) were obtained from Harlan Interfauna Iberica SA (Barcelona, Spain) and maintained during all the experiment in the installations of the animalary service at the University of Murcia. The animals were randomly distributed into six experimental groups of 6 rats each one, housed under standard conditions of lighting (day/night cycles of 12 h), temperature (22±2° C.) and humidity (60%).
During the setting period and the experimental periods, rats were feed on a solid standard diet for rats (Panlab). Drinking water and food were available ad libitum. After an setting period of 7 days, treatments according the experimental design were started.
In order to determine the effect of fortified extra virgin olive oil (evoo added with the olive extract according to the present invention) N-nitro-L-arginine-methylester (L-NAME) induced hypertension model was used.
Arterial blood pressure was measured with a periodicity according the above cronogramme, by the tail-cuff method. Before the measurement, rats were kept at 37° C. for 10 min to make the pulsations of the tail artery detectable. […] The arterial blood pressure measurements were performed at the same time of the day in order to avoid any influence of the circadian cycle.

C[C@H](CS)C(=O)N1CCC[C@H]1C(=O)O [Captopril]
systolic blood pressure: significant reduction of the blood pressure values
